Here are results for two molecules from US6643591B1, “Use of computational and experimental data to model organic compound reactivity in cytochrome P450 mediated reactions and to optimize the design of pharmaceuticals” (University of Pittsburgh, priority 1998, dated 2003).

The target of data set [1] is T1, CYP1A2 (Homo sapiens, UniProt P05177).
T1 sequence (P05177 1-516): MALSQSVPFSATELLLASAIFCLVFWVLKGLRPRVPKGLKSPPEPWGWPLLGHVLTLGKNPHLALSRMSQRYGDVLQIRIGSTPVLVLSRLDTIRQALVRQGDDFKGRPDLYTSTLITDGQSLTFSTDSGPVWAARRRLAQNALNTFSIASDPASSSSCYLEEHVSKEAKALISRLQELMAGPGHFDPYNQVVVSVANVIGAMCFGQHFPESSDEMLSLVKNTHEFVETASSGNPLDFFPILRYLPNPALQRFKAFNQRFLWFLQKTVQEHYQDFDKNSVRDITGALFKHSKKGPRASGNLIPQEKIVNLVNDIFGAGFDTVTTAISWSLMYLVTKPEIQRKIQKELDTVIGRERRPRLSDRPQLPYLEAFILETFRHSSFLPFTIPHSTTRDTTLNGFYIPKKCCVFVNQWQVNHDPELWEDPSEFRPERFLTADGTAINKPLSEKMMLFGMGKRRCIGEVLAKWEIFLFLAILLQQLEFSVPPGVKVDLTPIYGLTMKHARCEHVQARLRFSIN
Briefly: in vitro.

Data set [2] addresses CYP2E1 (Homo sapiens, UniProt P05181). Briefly: in vitro.
Data set [3] deals with CYP2C9 (Homo sapiens, UniProt P11712). Briefly: Regioselectivity and inter-/intramolecular KIE for 4-methylanisole (Table 15). In kind it is in vitro ADME.
Sequence of CYP2C9 (P11712 whole entry): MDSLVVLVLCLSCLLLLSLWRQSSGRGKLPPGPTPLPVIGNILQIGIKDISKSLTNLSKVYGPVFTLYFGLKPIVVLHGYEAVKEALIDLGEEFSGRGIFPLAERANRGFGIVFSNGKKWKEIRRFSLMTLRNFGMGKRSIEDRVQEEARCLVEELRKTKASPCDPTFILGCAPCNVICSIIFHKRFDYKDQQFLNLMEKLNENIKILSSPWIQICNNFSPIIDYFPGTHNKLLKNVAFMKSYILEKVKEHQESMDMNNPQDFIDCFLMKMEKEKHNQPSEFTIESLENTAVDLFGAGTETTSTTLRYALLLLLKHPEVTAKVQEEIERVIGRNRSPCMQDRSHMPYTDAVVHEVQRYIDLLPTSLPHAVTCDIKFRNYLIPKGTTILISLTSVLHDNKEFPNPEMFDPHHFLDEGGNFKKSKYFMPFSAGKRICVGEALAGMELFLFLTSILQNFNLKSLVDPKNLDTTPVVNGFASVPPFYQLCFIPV
Where [4] appears, read: pH 7.4, Regioselectivity BzH:Arom.
[5] abbreviates: pH 7.4, Regioselectivity BzH:ODAlk.

Sequence of CYP2E1 (P05181 whole entry): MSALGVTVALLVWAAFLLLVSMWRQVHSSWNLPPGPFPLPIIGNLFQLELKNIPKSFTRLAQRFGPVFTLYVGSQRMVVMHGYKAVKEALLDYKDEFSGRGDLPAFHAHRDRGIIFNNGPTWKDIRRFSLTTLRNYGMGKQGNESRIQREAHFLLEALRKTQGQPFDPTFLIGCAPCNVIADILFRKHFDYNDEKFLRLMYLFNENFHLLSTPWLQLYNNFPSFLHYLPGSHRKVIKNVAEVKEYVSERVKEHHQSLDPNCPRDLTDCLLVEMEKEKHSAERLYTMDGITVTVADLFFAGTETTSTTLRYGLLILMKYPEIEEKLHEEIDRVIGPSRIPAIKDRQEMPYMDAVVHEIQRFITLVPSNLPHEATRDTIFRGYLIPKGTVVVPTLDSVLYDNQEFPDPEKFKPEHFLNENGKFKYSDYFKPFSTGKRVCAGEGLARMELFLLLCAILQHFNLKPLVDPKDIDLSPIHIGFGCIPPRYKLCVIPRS

For the molecule `COc1ccccc1C` [o-Methylanisole, o-methylanisole], the selectivity ratio in data set [1] (setting [4]) is 0.63; in data set [1] (setting [5]), 2.9; in data set [2] (setting [4]) it was 0.48; in data set [2] (setting [5]), 1.6.
With `COc1ccc(C)cc1` [p-Methylanisole, p-methylanisole], in data set [3] (CYP2C9 (Table 15)), the “Intermolecular KIE” value worked out at 3.52 and the “Intramolecular KIE” value came to 3.92. The “δΔG^†” value in data set [3] (CYP2C9, benzylic oxidation vs O-dealkylation) amounted to 1.87 kcal/mol.
